Experimental data published in patent publication US20260174867A1, “REDUCTION OF ADIPOSE TISSUE” (LEIOS THERAPEUTICS, INC., priority 2023, published 2026).

How the values were obtained:
human subjects = conditions: cited from earlier work
fat tissue = assay: Propylene glycol as co-solvent injected with polidocanol; type: in vivo
inguinal fat pad = assay: Inguinal fat pad mass after a single treatment of polidocanol; type: in vivo; conditions: for reduction in inguinal fat pad mass: day 28 after a single treatment
Experimental: For example, reductions in inguinal fat pad mass of 15% were found at day 28 after a single treatment of polidocanol at doses of 0.5% and 1.25%. […] Thus, in embodiments, the polidocanol is administered approximately once per month and/or at concentrations less than about 2.0%. The treatment may employ about 0.1 to 0.3 mL (e.g. 0.2 mL) of a polidocanol at a concentration provided herein. In embodiments, the polidocanol is a concentration of from about 0.5% and 1.25%. The administration may be via injection. In embodiments, the injection is at a spacing of about 0.2 to 0.8 cm apart across the inguinal fat pad. Thus, in embodiments, the polidocanol is administered approximately once per month and/or at concentrations less than 2.0%. The treatment may employ 0.1 to 0.3 mL (e.g., 0.2 mL) of a polidocanol at a concentration provided herein. In embodiments, the polidocanol is a concentration of from 0.5% and 1.25%. The administration may be via injection. In embodiments, the injection is at a spacing of 0.2 to 0.8 cm apart across the inguinal fat pad. In embodiments, the injection is at a spacing of about 0.5 cm apart across the inguinal fat pad.

[1] = Kybella Label, spontaneous and elicited AEs, 1-week post-injection

Molecule: C[C@H](CCC(=O)O)[C@H]1CC[C@H]2[C@@H]3CC[C@@H]4C[C@H](O)CC[C@]4(C)[C@H]3C[C@H](O)[C@]12C [Kybella, deoxycholic acid]
- AE Proportions Post Treatment: Anesthesia (Numbness) (human subjects; [1]): 66%
- AE Proportions Post Treatment: Bruising (human subjects; [1]): 72%
- AE Proportions Post Treatment: Edema/Swelling (human subjects; [1]): 87%
- AE Proportions Post Treatment: Erythema (human subjects; [1]): 27%
- AE Proportions Post Treatment: Induration (human subjects; [1]): 23%
- AE Proportions Post Treatment: Nerve Injury (human subjects; [1]): 4%
- AE Proportions Post Treatment: Nodule (human subjects; [1]): 13%
- AE Proportions Post Treatment: Pain (human subjects; [1]): 70%
- AE Proportions Post Treatment: Paresthesia (human subjects; [1]): 14%
- AE Proportions Post Treatment: Pruritis (human subjects; [1]): 12%
- Injection site adverse events lasting >30 days: Edema/Swelling (human subjects; Kybella Label): 20%
- Injection site adverse events lasting >30 days: Induration (human subjects; Kybella Label): 13%
- Injection site adverse events lasting >30 days: Injection Site Pain (human subjects; Kybella Label): 16%
- Injection site adverse events lasting >30 days: Numbness (human subjects; Kybella Label): 42%
- injection-site adverse events (swelling/edema, bruising, pain) per treatment session (human subjects; compared to placebo, FIGS. 9A and 9B): significantly higher percentage of subjects exhibited an adverse reaction
- of said subjects, injection related side effect which lasts for more than 30 days (human subjects; subcutaneous injection): up to 42%
- subjects exhibiting an injection related side effect (human subjects; subcutaneous injection): ≤ 87%

Molecule: CC(O)CO (centres unmarked) [propylene glycol]
- irritation when injected with polidocanol (fat tissue): non-irritating
- patchy and incomplete fat tissue necrosis relative to the absence of co-solvent (fat tissue): reduced amount of patchy and incomplete fat tissue necrosis

Molecule: polidocanol
- reduction in inguinal fat pad mass (inguinal fat pad; concentration 2.0%): 10%
- reduction in inguinal fat pad mass (inguinal fat pad; dose 0.5%): 15%
- reduction in inguinal fat pad mass (inguinal fat pad; dose 1.25%): 15%
- visible change of inguinal fat pad / body contour (inguinal fat pad; in vivo): externally visible reduction in inguinal fat pad fullness
